Results: patent US7875598B2, “Compositions useful for the treatment of microbial infections” (The Regents of the University of California, priority 2004, dated 2011)
Values after ≈ are worked out from the molar mass of the structure shown.

Legend:
[1] = tested on: Clinical isolated drug-resistant C. albicans; assay: Sensitivity of clinical isolated drug-resistant C. albicans; assay type: cell-based, Candida albicans
Description: (§1) Bioassays were conducted to further characterize these two compounds.

C. albicans = assay: Anti-fungal activity (MIC) against C. albicans; assay type: cell-based, Candida albicans; conditions: for MIC: Candida albicans
Description: The compositions of the present invention usually have an anti-microbial effect, e.g., anti-G^+ bacteria activity, anti-G^− bacteria activity, anti-fungus activity or effect on bacterial quorum sensing. Methods or assays for testing the anti-microbial activity of a composition are readily available to one skilled in the art. For example, compositions of the present invention can be incubated with a bacterial or fungous culture, and the bacterial or fungous growth can be subsequently examined with a plate reader. Compositions of the present invention can also be examined for their effect on bacterial quorum sensing using either an acyl-homoserine lactone quorum sensing reporter system or a luxS quorum sensing reporter system.
as §1

S. mutans = assay: Anti-bacterial activity (MIC) against S. mutans; assay type: cell-based, Streptococcus mutans; conditions: for MIC: Streptococcus mutans
[2] = tested on: methicillin resistant Staphylococcus aureus; assay: Sensitivity of methicillin resistant Staphylococcus aureus; assay type: cell-based
[3] = tested on: Vancomycin resistant Enterococci; assay: Sensitivity of Vancomycin resistant Enterococci; assay type: cell-based
bacteria = assay: Enhancement of activity of other antibiotics (synergistic effect) in the bioassay; assay type: cell-based
Source text: Perilla was selected for two types of bioactivity. […] The second is its ability to enhance other antibacterial activities through some kind of synergistic effect. When the crude extract was mixed with antibiotics in the bioassay, it could enhance the activity of other antibiotics at a concentration at least 10 times lower than its MIC.

MIC (S. mutans) [µg/mL]	Compound	sensitivity of clinical isolated drug-resistant C. albicans to treatment [1]	fungicidal effect (C. albicans)	MIC (C. albicans) [µg/mL]	further results
	CC1OC(OC2C(O)[C@H](OC3OC(C)C(O)C(O)C3O)C(CO)O[C@H]2O[C@H]2CC[C@@]3(C)C(=CCC4C5CC6OC7(CC[C@@H](C)CO7)[C@@H](C)C6[C@@]5(C)CCC43)C2)C(O)C(O)C1O (stereo partly drawn) [Dioscin, (3β,25R)-spirost-5-en-3-yl O-6-deoxy-α-L-mannopyranosyl-(1→2)-O-[6-deoxy-α-L-mannopyranosyl-(1→4)]-β-D-glucopyranoside]	still sensitive	fungicidal effect	~4 (≈ 4.6 µM)	
10 (≈ 35.9 µM)	CC/C=C\C/C=C\C/C=C\CCCCCCCC(=O)O [Linolenic acid, (9Z,12Z,15Z)-9,12,15-octadecatrienoic acid]				
	CC1OC(OC2[C@H](O[C@H]3CC[C@@]4(C)C(=CCC5C6CC7OC8(CC[C@@H](C)CO8)[C@@H](C)C7[C@@]6(C)CCC54)C3)OC(CO)[C@@H](O[C@@H]3O[C@@H](CO)[C@@H](O)[C@H]3O)[C@@H]2O)C(O)C(O)C1O (stereo partly drawn) [Polyphyllin D, (3β,25R)-spirost-5-en-3-yl O-α-L-arabinofuranosyl-(1→4)-O-[6-deoxy-α-L-mannopyranosyl-(1→2)]-β-D-glucopyranoside]	still sensitive	fungicidal effect	~2 (≈ 2.34 µM)	
4 (≈ 9.12 µM)	C=C(C)[C@H](CC=C(C)C)Cc1c(O)cc(OC)c2c1O[C@H](c1ccc(O)cc1O)CC2=O [kurarinone, 2-(2,4-dihydroxyphenyl)-2,3-dihydro-7-hydroxy-5-methoxy-8-[5-methyl-2-(1-methylethenyl)-4-hexenyl]-4H-1-benzopyran-4-one]				sensitivity of methicillin resistant Staphylococcus aureus to the compound [2]: sensitive; bactericidal effect (S. mutans; organism not given): bactericidal effect; sensitivity of antimicrobial activity to environmental changes (S. mutans; pH (4.8-7.4), salt composition (Na, K, Ca), salt concentrations, oxygen levels (anaerobic and aerobic), temperature (120° C.)): insensitive; sensitivity of Vancomycin resistant Enterococci to the compound [3]: sensitive

Compound	MIC (S. mutans) [µg/mL]	sensitivity of clinical isolated drug-resistant C. albicans to treatment [1]	fungicidal effect (C. albicans)	MIC (C. albicans) [µg/mL]	further results
C=C(C)C1CC=C(C=O)CC1 (centres unmarked) [perillaldehyde, 4-(1-methylethenyl)-1-cyclohexene-1-carboxaldehyde]	10000 (≈ 66600 µM)				ability to enhance activity of other antibiotics (bacteria): enhance activity of other antibiotics in a dose-dependent manner
